Measurements reported in patent US11779768B2, “Protein activity modification” (Impulse Dynamics NV, priority 2004, dated 2023).
“And” between values parts separate entries of the source, which are not always exact repeats. Equal values may be shown once.

Columns and labels:
[1] = system: phospholamban threonin-17; experiment: Phosphorylation of PLB at threonine-17 in failing LV tissue homogenate with/without protein kinase inhibitor and CCM signal (Western blot); assay type: biochemical, dog
Description: (§1) The tissue homogenate was prepared in the following manner. […] The homogenate was then filtered through 4 layers of cheese cloth. The resulting homogenate was stored in ice and its protein concentration was determined by the Lowry method.
(§2) The CCM signals were delivered to the homogenate as follows. The homogenate was diluted 2 fold in homogenate buffer and subsequently aliquotted 3 ml each in assay tubes. Assay tubes were divided into 2 sets (Set A and Set B), each subset consisting of […]. CCM signals were delivered for 10″, 30″, 1′, 5′, 30′, and 60′ in one of the sets, while the other set served as time control. The reaction was stopped by adding concentrated SDS. Protein assay on all the samples were performed by Lowry method.
(§3) Additional experiments of tissue homogenate were carried out in the presence and absence of protein kinese inhibitors. The homogenate was the same as above, from dogs with heart failure. […] CAS 62996-74-1.

platelet aggregation = conditions: advertised; cited from earlier work
[2] = system: human malignant glioma cell lines; conditions: advertised; cited from earlier work
phospholamban serine-16 = experiment: Phosphorylation of PLB at serine-16 in failing LV tissue homogenate with/without protein kinase inhibitor and CCM signal (Western blot); assay type: biochemical, dog
Description: as §1, §2, §3

protein kinase G = conditions: advertised; read-out: Inhibits protein kinase G IC50; cited from earlier work
normal cells = conditions: advertised; cited from earlier work
[3] = system: dogs with intracoronary microembolization-induced chronic HF; experiment: 3 months therapy with beta-blocker alone, beta-blocker combined with CCM, or no therapy in HF dogs: LV EDV, ESV, EF; assay type: in vivo, dog
Description: In a set of experiments, dogs with intracoronary microembolization-induced chronic HF (LV EF 30%-40%) were randomized to 3 months therapy with either BB (beta-blockers) alone (extended release metoprolol succinate, 100 mg once daily), extended release metoprolol succinate (100 mg, once daily) combined with CCM therapy, or to no therapy at all (Control). LV end-diastolic volume (EDV), end-systolic volume (ESV) and EF were measured before randomization (PRE) and after 3 months of therapy (POST). To determine “treatment effect”, the change A between PRE and POST therapy for each group was compared among the 3 study groups.

[4] = 10 sec, Control + PK Inhibitor (no CCM)
[5] = 20 sec, Control + PK Inhibitor (no CCM)
[6] = 30 sec, Control + PK Inhibitor (no CCM)
[7] = CCM signals delivered for 60 sec, PK Inhibitor + CCM

## CN[C@@H]1C[C@H]2O[C@@](C)([C@@H]1OC)n1c3ccccc3c3c4c(c5c6ccccc6n2c5c31)C(=O)NC4 [STAUROSPORIN]
[1]; [4]
  P-PLB threonin-17, single sample: 8.9 and 9.5
[1]; [5]
  P-PLB threonin-17, Av: 9.0
[1]; [6]
  P-PLB threonin-17, single sample: 8.2
[1]; 60 sec, Control + PK Inhibitor (no CCM)
  P-PLB threonin-17, Av: 13.9
[1]; CCM signals delivered for 10 sec, PK Inhibitor + CCM
  P-PLB threonin-17, single sample: 14.6 and 9.9 and 8.7
[1]; CCM signals delivered for 20 sec, PK Inhibitor + CCM
  P-PLB threonin-17, single sample: 8.3 and 15.0
[1]; [7]
  P-PLB threonin-17, Av: 15.0
[1]; HF dog LV homogenate
  threonin-17 PLB phosphorylation response to CCM in presence of kinese inhibitor: reduced and delayed response
Platelet aggregation
  platelet aggregation induced by collagen or ADP: inhibits
  thrombin-induced platelet aggregation: no effect
[2]
  apoptosis in human malignant glioma cell lines: Induces apoptosis
Phospholamban serine-16; [4]
  P-PLB serine-16, single sample: 8.0 and 9.0
Phospholamban serine-16; [5]
  P-PLB serine-16, single sample: 12.2 and 14.0
Phospholamban serine-16; [6]
  P-PLB serine-16, Av: 9.4
  P-PLB serine-16, single sample: 6.8 and 9.7
Phospholamban serine-16; CCM signals delivered for 30 sec, PK Inhibitor + CCM
  P-PLB serine-16, single sample: 14.3 and 13.0
Phospholamban serine-16; [7]
  P-PLB serine-16, Av: 19.9
  P-PLB serine-16, single sample: 22.7
Phospholamban serine-16; HF dog LV homogenate
  serine-16 PLB phosphorylation response to CCM in presence of kinese inhibitor: responded close to usual
Protein kinase G
  IC50: 8.5 nM
Normal cells
  cell cycle of normal cells (G1 checkpoint): Arrests normal cells at the G1 checkpoint

## COCCc1ccc(OCC(O)CNC(C)C)cc1 (centres unmarked) [BB, metoprolol succinate]
[3]; BB 100 mg once daily combined with CCM therapy
  Treatment effect (Δ PRE to POST) LV EF: 12±1%
[3]; BB alone
  LV EDV, effect of therapy: prevented the increase
  LV EF, effect of therapy: significantly increased
  LV ESV, effect of therapy: significantly reduced
[3]; BB alone, 100 mg once daily
  Treatment effect (Δ PRE to POST) LV EF: 6±1%
[3]; BB combined with CCM
  LV EDV, effect of therapy: prevented the increase
  LV EF, effect of therapy: significantly increased
  LV ESV, effect of therapy: significantly reduced
